Measured values reported in the NIST ThermoML archive (doi:10.1021/je900586f).

Experiments:
[1] = xn = mol fraction of the nth substance listed; details: 298.15 K, 101 kPa, Liquid, Vibrating tube method
[2] = refractive index (Na D-line) (dimensionless); xn = mol fraction of the nth substance listed; details: 298.15 K, 101 kPa, Liquid, Standard Abbe refractometry
[3] = for mass density: 298.15 K, 101.33 kPa, Liquid, Vibrating tube method; for Normal melting temperature: Crystal
[4] = refractive index (Na D-line) (dimensionless); details: 298.15 K; 101.33 kPa; Liquid; Standard Abbe refractometry

CCCCCCCCN(CCCCCCCC)CCCCCCCC [trioctylamine] + CCCCCCCCCCO
Details	mass density, [1] [kg/m3]	refractive index, [2]
x1 = 0.0504	825.4	1.437
x1 = 0.0998	824	1.4384
x1 = 0.2002	821.6	1.4406
x1 = 0.3	819.3	1.4424
x1 = 0.4002	817.3	1.4437
x1 = 0.501	815.4	1.4448
x1 = 0.6008	813.8	1.4457
x1 = 0.7007	812.3	1.4464
x1 = 0.8014	810.7	1.4469
x1 = 0.9022	809.2	1.4473
x1 = 0.9522	808.6	1.4475

CCCCCCCCCCO [decan-1-ol] + CCCCCCCCO
[2]
Details	refractive index
x2 = 0.05	1.435
x2 = 0.0996	1.4346
x2 = 0.1996	1.434
x2 = 0.2997	1.4333
x2 = 0.4005	1.4325
x2 = 0.5006	1.4318
x2 = 0.6005	1.431
x2 = 0.7006	1.4301
x2 = 0.8002	1.4293
x2 = 0.9	1.4284
x2 = 0.9507	1.4279

CCCCCCCCCCO [decan-1-ol]
Details	Normal melting temperature [°C]	mass density [kg/m3]	refractive index
[3]	7.04	826.59	–
[4]	–	–	1.43541

CCCCCCCCO [octan-1-ol]
Details	Normal melting temperature [°C]	mass density [kg/m3]	refractive index
[3]	-15.30	821.76	–
[4]	–	–	1.42754

CCCCCCCCN(CCCCCCCC)CCCCCCCC [trioctylamine]
Details	Normal melting temperature [°C]	mass density [kg/m3]	refractive index
[3]	-34.42	807.46	–
[4]	–	–	1.44758

CCCCCCCCN(CCCCCCCC)CCCCCCCC [trioctylamine] + CCCCCCCCO
Details	mass density, [1] [kg/m3]	refractive index, [2]
x1 = 0.0497	820.8	1.4311
x1 = 0.1	819.7	1.433
x1 = 0.2	817.8	1.4359
x1 = 0.3004	816	1.4389
x1 = 0.4001	814.5	1.4415
x1 = 0.4997	813.1	1.4432
x1 = 0.6012	811.9	1.4445
x1 = 0.701	810.7	1.4453
x1 = 0.8002	809.7	1.4461
x1 = 0.8962	808.7	1.447
x1 = 0.9496	808.1	1.4474
